Patent US20150239890A1, “CRYSTAL OF N-[2-(AMINO)-2-METHYLPROPYL]-2-METHYLPYRAZOLO[1,5-A]PYRIMIDINE-6-CARBOXAMIDE” (SANWA KAGAKU KENKYUSHO CO., LTD., priority 2012, published 2015)
Like-named read-outs stand apart in the source and are kept apart here.

What was measured:
Assay type in all cases: physicochemical
[1] = Stability test in (sealed) condition at 60° C., purity by HPLC; settings: for Purity (60° C., sealed) After 4 weeks: sealed brown glass bottle; for Purity (60° C., sealed) Initial stage value: before storage
Experimental: Each test sample of an amorphous compound 1 prepared by a modification method, an amorphous compound 2 obtained by forming a free base of the amorphous compound 1 into hydrochloride in the same method as in Example 1 of Patent Literature 1, a crystal of the compound 1, which was prepared by the method described in Example 1 of the present specification, was charged into a brown glass bottle by each amount of 10 mg and preserved at 60° C., and the purities were compared after 4 weeks. […] Not that the purity measurement was carried out in the following conditions.
Column: Develosil CN-5 (Nomura Chemical), 250 mm×4.6 mmφ
Mobile phase: 20 mM NaH2PO4 buffer (pH 6.9)/MeCN=80/20
Wavelength: UV 247 nm and 220 nm
Concentration of test sample: 100 μg/ml (H2O)

[2] = Hygroscopicity test in condition of 66% RH (20° C.)
Experimental: Each test sample of an amorphous compound 1 prepared in a modification method, an amorphous compound 2 obtained by forming a free base of the amorphous compound 1 into hydrochloride in the same method as in Example 1 of Patent Literature 1, a crystal of the compound 1, which was prepared by the method described in Example 1 of the present specification, was charged into a desiccator at a humidity of 66% RH that was prepared by an aqueous saturated sodium nitrite solution by each amount of 100 mg and left stood at 20° C. Change in weights of each test sample was measured with time and a weight increase ratio was calculated.

[3] = Solubility of the crystal in water; settings: for solubility: 20 °C, thermodynamic from solid
Experimental: 1. The crystal has peaks around at 9.8°, 17.4°, 18.6°, 25.3°, and 25.8° as diffraction angles represented by 2θ in the powder X-ray diffraction pattern. 2. The crystal has absorption recognized around at wave numbers of 3340 cm^−1, 1664 cm^−1, and 1654 cm^−1 in the infrared absorption spectrum. 3. The crystal has a heat adsorption peak around at 120° C. in the differential scanning calorimetry (DSC). 4. The crystal has a degree of solubility to water of 1 g/ml or higher and the solubility is classified into “very soluble” according to the Japanese Pharmacopoeia.
Solubility (20° C.): >1 g/ml (very soluble)

[4] = 66% RH, 20° C., after 7 days, listed as crystal of the compound 1
[5] = 66% RH, 20° C., after 7 days, listed as amorphous compound 1

Structure (SMILES) | Purity (60° C., sealed) After 4 weeks ([1]; 60° C., after 4 weeks) | impurity / area value of an impurity peak, initial stage [1] | Purity (60° C., sealed) Initial stage value [1] | Weight increase ratio (66% RH, 20° C.) After 7 days ([2]; 66% RH, 20° C., after 7 days) | purity After 7 days (66% RH, 20° C.) ([2]; 66% RH, 20° C., after 7 days) | Weight increase ratio (66% RH, 20° C.) Initial stage value [2] | purity, Initial stage value (66% RH, 20° C. test) [2] | also measured
Cc1cc2ncc(C(=O)NCC(C)(C)NCC(=O)N3CCC[C@H]3C#N)cn2n1 [Amorphous compound 2] | 96.1% | 0.6% | 98.8% | 1.7% | 90.5% | 0 | 97.9% | Purity (60° C., sealed) After 4 weeks ([1]; 60° C., after 4 weeks, listed as amorphous compound 2): 96.1%; area value of an impurity peak after 4 weeks ([1]; 60° C., sealed, after 4 weeks): 3.1%; Purity (60° C., sealed) Initial stage value ([1]; listed as amorphous compound 2): 98.8%
Cc1cc2ncc(C(=O)NCC(C)(C)NCC(=O)N3CCC[C@H]3C#N)cn2n1 [Crystal of compound 1, N-[2-({2-[(2S)-2-cyanopyrrolidine-1-yl]-2-oxoethyl}amino)-2-methylpropyl]-2-methylpyrazolo[1,5-a]pyrimidine-6-carboxamide] | 100.0% | not observed to contain an impurity | 100.0% | 0.01% | 100.0% | 0 | 100.0% | Solubility (20° C.) class ([3]; 20° C.): very soluble; solubility class according to the Japanese Pharmacopoeia ([3]; water): very soluble; solubility ([3]; water, water, 20° C., read-out: Solubility (20° C.)): > 1000 mg/mL; solubility ([3]; water, water, water, read-out: degree of solubility to water): ≥ 1000 mg/mL; Purity (60° C., sealed) After 4 weeks ([1]; 60° C., after 4 weeks, listed as crystal of the compound 1): not changed; hygroscopicity (in words) ([2]; 66% RH, 20° C., after 7 days): hygroscopicity was not observed; Weight increase ratio (66% RH, 20° C.) After 7 days [2, 4]: 0.01%; purity After 7 days (66% RH, 20° C.) [2, 4]: change in the purity was also not recognized
Cc1cc2ncc(C(=O)NCC(C)(C)NCC(=O)N3CCC[C@H]3C#N)cn2n1 [Amorphous compound 1, N-[2-({2-[(2S)-2-cyanopyrrolidine-1-yl]-2-oxoethyl}amino)-2-methylpropyl]-2-methylpyrazolo[1,5-a]pyrimidine-6-carboxamide] | 99.4% | not observed to contain an impurity | 100.0% | 1.7% | 99.8% | 0 | 100.0% | Purity (60° C., sealed) After 4 weeks ([1]; 60° C., after 4 weeks, listed as amorphous compound 1): 99.4%; Weight increase ratio (66% RH, 20° C.) After 7 days [2, 5]: 1.7%; purity After 7 days (66% RH, 20° C.) [2, 5]: 99.8%
